Targets include D(3) dopamine receptor (Homo sapiens, UniProt P35462); Melanocortin receptor 3 (Homo sapiens, UniProt P41968); Adenosine receptor A2a (Homo sapiens, UniProt P29274).
Another assay has as its target T1, Adenosine receptor A1 (Homo sapiens, UniProt P30542).
T1 sequence (P30542 whole entry): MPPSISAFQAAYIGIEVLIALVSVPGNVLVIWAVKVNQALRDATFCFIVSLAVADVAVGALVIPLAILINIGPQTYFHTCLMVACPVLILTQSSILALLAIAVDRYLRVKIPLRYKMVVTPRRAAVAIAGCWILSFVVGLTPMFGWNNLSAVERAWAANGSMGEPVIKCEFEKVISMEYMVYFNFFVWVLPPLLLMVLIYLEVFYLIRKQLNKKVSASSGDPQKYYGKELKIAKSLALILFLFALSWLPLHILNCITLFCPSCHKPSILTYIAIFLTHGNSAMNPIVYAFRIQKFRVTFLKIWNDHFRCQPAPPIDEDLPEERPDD

Another assay deals with T2, Adenosine receptor A3 (Homo sapiens, UniProt P0DMS8).
T2 sequence (P0DMS8 whole entry): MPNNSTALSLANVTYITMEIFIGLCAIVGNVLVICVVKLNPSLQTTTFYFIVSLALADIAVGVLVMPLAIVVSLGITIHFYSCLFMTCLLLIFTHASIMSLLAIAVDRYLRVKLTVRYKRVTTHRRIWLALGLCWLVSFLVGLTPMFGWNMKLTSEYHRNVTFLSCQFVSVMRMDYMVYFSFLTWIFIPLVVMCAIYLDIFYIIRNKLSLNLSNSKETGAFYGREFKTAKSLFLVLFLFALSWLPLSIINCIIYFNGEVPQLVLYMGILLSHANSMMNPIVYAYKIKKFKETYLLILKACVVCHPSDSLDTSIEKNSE

Assay [1] addresses T3, Cholecystokinin receptor type A (Homo sapiens, UniProt P32238).
T3 sequence (P32238 whole entry): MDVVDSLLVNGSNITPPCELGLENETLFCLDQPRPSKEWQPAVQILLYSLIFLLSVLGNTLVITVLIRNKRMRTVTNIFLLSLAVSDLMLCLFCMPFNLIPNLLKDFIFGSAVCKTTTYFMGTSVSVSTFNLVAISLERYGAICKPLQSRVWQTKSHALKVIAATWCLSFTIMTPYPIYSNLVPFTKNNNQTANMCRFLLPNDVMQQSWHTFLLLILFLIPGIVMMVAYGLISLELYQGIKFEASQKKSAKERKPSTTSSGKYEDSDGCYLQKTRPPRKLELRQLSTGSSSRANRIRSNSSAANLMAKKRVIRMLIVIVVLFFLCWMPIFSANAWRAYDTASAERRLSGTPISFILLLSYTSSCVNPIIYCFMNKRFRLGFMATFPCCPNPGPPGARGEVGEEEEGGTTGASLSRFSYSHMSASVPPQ

Assay [2] concerns the target cGMP-inhibited 3',5'-cyclic phosphodiesterase 3A (Homo sapiens, UniProt Q14432). The format is functional.
The target of assay [3] is T4, 5-hydroxytryptamine receptor 1A (Homo sapiens, UniProt P08908).
T4 sequence (P08908 whole entry): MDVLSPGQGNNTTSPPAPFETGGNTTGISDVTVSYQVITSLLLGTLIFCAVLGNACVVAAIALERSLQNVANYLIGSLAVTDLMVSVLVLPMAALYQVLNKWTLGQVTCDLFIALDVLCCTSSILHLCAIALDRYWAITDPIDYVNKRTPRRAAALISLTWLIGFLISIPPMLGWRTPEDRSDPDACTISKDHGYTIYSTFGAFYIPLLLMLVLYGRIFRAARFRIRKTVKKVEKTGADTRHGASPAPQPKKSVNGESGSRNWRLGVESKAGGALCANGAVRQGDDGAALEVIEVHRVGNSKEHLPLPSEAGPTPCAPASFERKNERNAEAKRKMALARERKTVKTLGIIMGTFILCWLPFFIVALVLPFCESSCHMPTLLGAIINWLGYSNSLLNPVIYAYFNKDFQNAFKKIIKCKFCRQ
The assay is classed as functional, cell-based.

Another assay has as its target D(1A) dopamine receptor (Homo sapiens, UniProt P21728). The format is functional, cell-based.
The target of assay [4] is Sodium-dependent noradrenaline transporter (Homo sapiens, UniProt P23975).
Sequence of Sodium-dependent noradrenaline transporter (P23975 whole entry): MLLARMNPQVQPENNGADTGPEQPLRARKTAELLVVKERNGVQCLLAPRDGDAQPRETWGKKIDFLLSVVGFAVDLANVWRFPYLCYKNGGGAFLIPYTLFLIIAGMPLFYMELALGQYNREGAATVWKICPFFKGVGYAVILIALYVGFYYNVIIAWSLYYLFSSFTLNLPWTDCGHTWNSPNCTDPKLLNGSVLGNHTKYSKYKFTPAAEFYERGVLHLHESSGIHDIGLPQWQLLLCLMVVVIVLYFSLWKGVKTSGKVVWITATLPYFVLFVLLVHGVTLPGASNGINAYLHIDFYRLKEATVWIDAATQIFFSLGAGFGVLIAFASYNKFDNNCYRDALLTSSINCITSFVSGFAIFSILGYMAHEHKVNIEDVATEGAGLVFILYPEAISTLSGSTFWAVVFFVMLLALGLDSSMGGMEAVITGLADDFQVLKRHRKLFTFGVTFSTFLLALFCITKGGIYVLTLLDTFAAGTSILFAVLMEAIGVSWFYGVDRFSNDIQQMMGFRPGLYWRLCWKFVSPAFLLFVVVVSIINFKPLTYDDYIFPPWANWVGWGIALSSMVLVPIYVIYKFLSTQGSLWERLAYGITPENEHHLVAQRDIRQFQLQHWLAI
In assay [5] the target is T5, Equilibrative nucleoside transporter 1 (Homo sapiens, UniProt Q99808).
T5 sequence (Q99808 whole entry): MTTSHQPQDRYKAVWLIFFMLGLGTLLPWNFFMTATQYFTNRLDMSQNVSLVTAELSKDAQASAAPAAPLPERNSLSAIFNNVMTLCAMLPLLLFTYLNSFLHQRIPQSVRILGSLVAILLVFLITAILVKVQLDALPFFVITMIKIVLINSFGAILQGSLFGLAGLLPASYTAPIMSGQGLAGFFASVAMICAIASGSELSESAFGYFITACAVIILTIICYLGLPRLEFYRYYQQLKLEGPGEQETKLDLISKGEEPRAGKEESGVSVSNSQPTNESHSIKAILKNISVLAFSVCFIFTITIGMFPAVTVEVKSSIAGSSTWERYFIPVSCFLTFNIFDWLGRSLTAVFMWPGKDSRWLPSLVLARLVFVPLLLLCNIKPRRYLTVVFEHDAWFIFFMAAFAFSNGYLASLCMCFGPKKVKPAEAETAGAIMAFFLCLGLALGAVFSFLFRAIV

In assay [6] the target is Voltage-gated inwardly rectifying potassium channel KCNH2 (Homo sapiens, UniProt Q12809). The assay is classed as functional. Particulars: read-out: AC50.
Sequence of Voltage-gated inwardly rectifying potassium channel KCNH2 (Q12809 whole entry): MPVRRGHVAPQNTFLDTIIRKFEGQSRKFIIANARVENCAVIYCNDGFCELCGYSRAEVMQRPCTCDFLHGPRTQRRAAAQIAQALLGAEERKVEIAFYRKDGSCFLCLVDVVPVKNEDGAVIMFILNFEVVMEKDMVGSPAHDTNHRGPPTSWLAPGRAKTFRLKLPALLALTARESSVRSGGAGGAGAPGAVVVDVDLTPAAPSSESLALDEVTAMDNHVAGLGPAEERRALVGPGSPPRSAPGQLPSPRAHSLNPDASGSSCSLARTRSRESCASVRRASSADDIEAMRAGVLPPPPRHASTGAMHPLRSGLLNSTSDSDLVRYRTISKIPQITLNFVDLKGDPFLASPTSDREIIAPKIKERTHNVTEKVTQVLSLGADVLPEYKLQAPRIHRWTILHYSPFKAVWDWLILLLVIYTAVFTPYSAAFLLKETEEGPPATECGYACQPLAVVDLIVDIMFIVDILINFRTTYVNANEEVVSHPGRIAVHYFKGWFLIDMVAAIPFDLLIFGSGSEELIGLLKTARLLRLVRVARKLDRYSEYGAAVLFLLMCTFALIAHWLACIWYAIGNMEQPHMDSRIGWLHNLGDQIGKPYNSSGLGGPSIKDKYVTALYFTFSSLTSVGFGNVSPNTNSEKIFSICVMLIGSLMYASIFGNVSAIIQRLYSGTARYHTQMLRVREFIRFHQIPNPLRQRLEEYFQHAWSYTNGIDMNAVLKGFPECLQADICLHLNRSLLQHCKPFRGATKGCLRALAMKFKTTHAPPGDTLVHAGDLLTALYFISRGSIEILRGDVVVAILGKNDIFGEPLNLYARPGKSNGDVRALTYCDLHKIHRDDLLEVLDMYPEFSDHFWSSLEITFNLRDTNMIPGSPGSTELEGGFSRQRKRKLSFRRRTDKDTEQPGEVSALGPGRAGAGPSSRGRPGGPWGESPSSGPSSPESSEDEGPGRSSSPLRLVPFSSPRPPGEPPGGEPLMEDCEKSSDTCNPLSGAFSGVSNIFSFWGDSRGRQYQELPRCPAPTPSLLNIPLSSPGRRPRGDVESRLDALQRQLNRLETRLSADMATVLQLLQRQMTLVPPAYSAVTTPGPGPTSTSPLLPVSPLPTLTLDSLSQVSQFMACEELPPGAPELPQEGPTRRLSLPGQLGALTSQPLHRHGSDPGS

In ChEMBL document CHEMBL5291721, “A preclinical secondary pharmacology resource illuminates target-adverse drug reaction associations of marketed drugs” (Nat Commun, 2023) one finds AC50 data, which are given here for 13 compounds.
Also: assay procedure not described here.

Sequence of D(3) dopamine receptor (P35462 whole entry): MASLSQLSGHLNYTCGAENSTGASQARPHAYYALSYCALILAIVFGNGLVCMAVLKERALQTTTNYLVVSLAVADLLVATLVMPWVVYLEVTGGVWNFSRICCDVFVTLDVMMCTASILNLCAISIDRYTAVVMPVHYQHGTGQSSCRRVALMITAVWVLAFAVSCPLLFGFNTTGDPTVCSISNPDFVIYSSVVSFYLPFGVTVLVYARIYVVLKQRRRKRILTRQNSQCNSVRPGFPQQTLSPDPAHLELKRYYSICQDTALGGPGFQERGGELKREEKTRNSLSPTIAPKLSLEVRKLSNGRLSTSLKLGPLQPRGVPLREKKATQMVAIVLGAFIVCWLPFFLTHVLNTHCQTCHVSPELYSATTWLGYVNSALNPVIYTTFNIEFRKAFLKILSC
Sequence of Adenosine receptor A2a (P29274 whole entry): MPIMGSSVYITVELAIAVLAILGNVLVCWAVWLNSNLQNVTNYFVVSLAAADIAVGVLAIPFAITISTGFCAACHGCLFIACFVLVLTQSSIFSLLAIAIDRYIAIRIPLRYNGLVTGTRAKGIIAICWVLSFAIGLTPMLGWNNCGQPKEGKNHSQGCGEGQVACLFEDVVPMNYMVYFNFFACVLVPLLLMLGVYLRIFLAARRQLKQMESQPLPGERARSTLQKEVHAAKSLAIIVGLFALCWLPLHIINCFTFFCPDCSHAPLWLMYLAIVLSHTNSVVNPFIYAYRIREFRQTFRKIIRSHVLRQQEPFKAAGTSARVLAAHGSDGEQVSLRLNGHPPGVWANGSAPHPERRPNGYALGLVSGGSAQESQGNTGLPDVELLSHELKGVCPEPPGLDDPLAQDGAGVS
Sequence of D(1A) dopamine receptor (P21728 whole entry): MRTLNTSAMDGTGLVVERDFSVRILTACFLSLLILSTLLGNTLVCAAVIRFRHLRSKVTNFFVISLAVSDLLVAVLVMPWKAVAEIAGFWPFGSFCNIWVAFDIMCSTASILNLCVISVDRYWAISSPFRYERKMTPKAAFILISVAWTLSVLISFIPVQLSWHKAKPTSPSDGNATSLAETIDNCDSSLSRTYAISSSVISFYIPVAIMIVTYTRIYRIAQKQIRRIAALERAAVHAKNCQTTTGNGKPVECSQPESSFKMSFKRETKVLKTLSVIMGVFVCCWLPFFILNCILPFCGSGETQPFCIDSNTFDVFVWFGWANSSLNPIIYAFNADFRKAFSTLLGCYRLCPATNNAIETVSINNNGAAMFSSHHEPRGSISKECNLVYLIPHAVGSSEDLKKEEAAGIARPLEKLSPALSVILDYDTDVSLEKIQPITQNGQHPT
Sequence of cGMP-inhibited 3',5'-cyclic phosphodiesterase 3A (Q14432 whole entry): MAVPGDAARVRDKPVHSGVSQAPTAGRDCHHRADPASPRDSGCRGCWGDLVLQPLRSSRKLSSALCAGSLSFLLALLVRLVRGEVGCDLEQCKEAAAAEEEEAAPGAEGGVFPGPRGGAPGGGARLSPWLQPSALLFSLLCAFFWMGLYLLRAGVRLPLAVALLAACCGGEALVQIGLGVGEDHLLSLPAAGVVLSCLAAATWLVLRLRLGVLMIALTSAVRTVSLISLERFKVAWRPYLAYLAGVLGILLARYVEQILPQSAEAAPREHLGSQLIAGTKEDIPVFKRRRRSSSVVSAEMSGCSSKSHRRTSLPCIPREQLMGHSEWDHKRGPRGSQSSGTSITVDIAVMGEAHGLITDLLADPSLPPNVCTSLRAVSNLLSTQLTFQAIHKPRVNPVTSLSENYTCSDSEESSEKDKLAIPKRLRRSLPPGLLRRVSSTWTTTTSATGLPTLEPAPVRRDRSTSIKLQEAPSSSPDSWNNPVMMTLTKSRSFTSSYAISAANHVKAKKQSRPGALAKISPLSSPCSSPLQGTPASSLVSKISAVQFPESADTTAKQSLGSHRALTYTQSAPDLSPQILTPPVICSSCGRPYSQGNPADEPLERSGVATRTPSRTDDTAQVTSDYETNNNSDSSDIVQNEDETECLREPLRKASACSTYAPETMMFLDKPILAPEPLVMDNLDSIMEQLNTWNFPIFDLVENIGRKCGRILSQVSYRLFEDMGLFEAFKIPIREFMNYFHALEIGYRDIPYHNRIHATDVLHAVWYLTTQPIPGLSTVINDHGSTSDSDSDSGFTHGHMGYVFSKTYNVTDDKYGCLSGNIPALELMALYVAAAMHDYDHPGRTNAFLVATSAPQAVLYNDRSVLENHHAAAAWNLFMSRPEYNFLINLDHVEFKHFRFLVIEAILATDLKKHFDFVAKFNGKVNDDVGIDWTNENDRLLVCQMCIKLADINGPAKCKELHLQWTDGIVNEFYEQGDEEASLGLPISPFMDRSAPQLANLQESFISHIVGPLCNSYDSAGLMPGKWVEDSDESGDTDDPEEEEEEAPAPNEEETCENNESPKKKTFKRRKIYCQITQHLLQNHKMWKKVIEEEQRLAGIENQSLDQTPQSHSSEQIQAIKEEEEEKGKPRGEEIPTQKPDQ
Sequence of Melanocortin receptor 3 (P41968 whole entry): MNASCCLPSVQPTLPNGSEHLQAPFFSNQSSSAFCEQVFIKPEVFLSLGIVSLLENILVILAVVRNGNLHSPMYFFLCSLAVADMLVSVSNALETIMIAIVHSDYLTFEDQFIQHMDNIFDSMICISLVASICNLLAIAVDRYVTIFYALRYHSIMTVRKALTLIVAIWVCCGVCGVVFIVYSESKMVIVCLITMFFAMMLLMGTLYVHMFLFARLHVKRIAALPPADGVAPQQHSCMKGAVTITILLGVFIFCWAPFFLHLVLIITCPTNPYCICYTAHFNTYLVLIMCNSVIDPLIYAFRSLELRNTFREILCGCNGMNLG

What is called AC50 is the concentration at which the activity in the assay is half-maximal. Turning to `CCC[C@@]1(CCc2ccccc2)CC(O)=C([C@H](CC)c2cccc(NS(=O)(=O)c3ccc(C(F)(F)F)cn3)c2)C(=O)O1`, the AC50 at Adenosine receptor A1 was over 30 µM; at Adenosine receptor A3, 6.4 µM; in [1], 27 µM; in assay [2] it was over 30 µM; in assay [3] it was over 30 µM; at D(3) dopamine receptor, over 30 µM. Moreover, the AC50 (at D(1A) dopamine receptor; at Melanocortin receptor 3; in [4]; at Adenosine receptor A2a; in [5]) was over 30 µM in each case.
`CN(C)CCC=C1c2ccccc2CCc2ccccc21` [AMITRIPTYLINE]: the AC50 was over 30 µM at Adenosine receptor A1; 14.1 µM on Adenosine receptor A3; over 30 µM in assay [1]; over 30 µM in [2]; over 10 µM in [3]; 0.44 µM at D(3) dopamine receptor. Moreover, the AC50 on D(1A) dopamine receptor was over 10 µM; on Melanocortin receptor 3, 23 µM; at Adenosine receptor A2a, over 30 µM; in assay [5], over 30 µM.
As for `CN1CC2c3ccccc3Oc3ccc(Cl)cc3C2C1` (centres undefined) [ASENAPINE], the AC50 at Adenosine receptor A1 is over 30 µM; on Adenosine receptor A3, over 30 µM; in assay [1], over 30 µM; in assay [2], over 30 µM; in assay [3] it was over 10 µM; at D(3) dopamine receptor, 0.0044 µM. Further, the AC50 was over 30 µM at D(1A) dopamine receptor; over 30 µM at Melanocortin receptor 3; 17 µM in assay [4]; over 30 µM on Adenosine receptor A2a; over 30 µM in [5].
In the case of `CC(C)NCC(O)COc1ccc(CC(N)=O)cc1` (centres undefined) [ATENOLOL], the AC50 (on Adenosine receptor A1; on Adenosine receptor A3; in [1]; in assay [2]; in assay [3]; on D(3) dopamine receptor) was over 30 µM throughout. Moreover, the AC50 (on Melanocortin receptor 3; in [4]; at Adenosine receptor A2a; in [5]) was over 30 µM in each case.
Regarding `Cn1cnc2c(F)c(Nc3ccc(Br)cc3F)c(C(=O)NOCCO)cc21` [BINIMETINIB], the AC50 (on Adenosine receptor A1; on Adenosine receptor A3; in assay [1]; in [2]; in assay [3]; on D(3) dopamine receptor) was over 30 µM each time. The concentration at half-maximal activity (AC50) (at D(1A) dopamine receptor; on Melanocortin receptor 3; in assay [4]; at Adenosine receptor A2a; in assay [5]) was over 30 µM in each case.
Regarding `C[C@H](CS)C(=O)N1CCC[C@H]1C(=O)O` [CAPTOPRIL], the AC50 (at Adenosine receptor A1; on Adenosine receptor A3; in [1]; in assay [2]; in assay [3]; at D(3) dopamine receptor) was over 30 µM throughout. The AC50 (at D(1A) dopamine receptor; on Melanocortin receptor 3; in assay [4]; at Adenosine receptor A2a; in assay [5]) was over 30 µM each time.
Take `CN(C)CCCC1(c2ccc(F)cc2)OCc2cc(C#N)ccc21` (centres undefined) [CITALOPRAM]: the AC50 on Adenosine receptor A1 is over 30 µM; at Adenosine receptor A3 it was over 30 µM; in assay [1], over 30 µM; in [2], over 30 µM; in assay [3], over 10 µM; on Melanocortin receptor 3, over 30 µM. Also, the concentration at half-maximal activity (AC50) (on Adenosine receptor A2a; in assay [5]) was over 30 µM each time.
`C[C@H](Nc1ncnc2[nH]cnc12)c1cc2cccc(Cl)c2c(=O)n1-c1ccccc1` [DUVELISIB]: the AC50 (at Adenosine receptor A1; on Adenosine receptor A3; in [1]; in [2]; in assay [3]; at D(3) dopamine receptor) was over 30 µM each time. Further, the concentration at half-maximal activity (AC50) (on D(1A) dopamine receptor; on Melanocortin receptor 3; in assay [4]; at Adenosine receptor A2a; in assay [5]) was over 30 µM in each case.
Consider `O=c1[nH]cc(F)c(=O)[nH]1` [FLUOROURACIL], for which the AC50 (at Adenosine receptor A1; at Adenosine receptor A3; in assay [1]; in assay [6]; on Melanocortin receptor 3; in [4]) was over 30 µM each time. In addition, the concentration at half-maximal activity (AC50) (at Adenosine receptor A2a; in assay [5]) was over 30 µM in each case.
Regarding `OCCOCCN1CCN(C(c2ccccc2)c2ccc(Cl)cc2)CC1` (centres undefined) [HYDROXYZINE], the AC50 was over 30 µM at Adenosine receptor A1; over 30 µM on Adenosine receptor A3; over 30 µM in assay [1]; over 30 µM in [2]; over 10 µM in assay [3]; 0.29 µM at D(3) dopamine receptor. In addition, the AC50 was over 10 µM at D(1A) dopamine receptor; over 30 µM on Melanocortin receptor 3; over 10 µM in [4]; over 30 µM on Adenosine receptor A2a; over 30 µM in [5].
As to `Nc1nnc(-c2cccc(Cl)c2Cl)c(N)n1` [LAMOTRIGINE], the AC50 is over 30 µM at Adenosine receptor A1; over 30 µM at Adenosine receptor A3; over 30 µM in assay [1]; 2.1 µM in assay [2]; over 10 µM in assay [3]; over 10 µM at D(3) dopamine receptor. The AC50 on D(1A) dopamine receptor was over 30 µM; on Melanocortin receptor 3 it was over 30 µM; in assay [4], over 10 µM; on Adenosine receptor A2a, over 30 µM; in assay [5], over 30 µM.
On to `CS(=O)(=O)Nc1ccc([N+](=O)[O-])cc1Oc1ccccc1` [NIMESULIDE], for which the AC50 in assay [1] was 6.2 µM; in assay [2], over 30 µM; in assay [3], over 30 µM; on D(3) dopamine receptor, over 30 µM; in [6] it was over 30 µM; at D(1A) dopamine receptor it was over 30 µM. Besides, the AC50 on Melanocortin receptor 3 is over 30 µM; in assay [4] it was 19 µM; on Adenosine receptor A2a it was 20 µM; in [5], 15 µM.
Consider `CO[C@@H]1[C@@H](OC(N)=O)[C@@H](O)[C@H](Oc2ccc3c(O)c(NC(=O)c4ccc(O)c(CC=C(C)C)c4)c(=O)oc3c2C)OC1(C)C` [NOVOBIOCIN], for which the AC50 (on Adenosine receptor A1; on Adenosine receptor A3; in assay [1]; in assay [2]; in assay [3]; at D(3) dopamine receptor) was over 30 µM throughout. Besides, the AC50 (on D(1A) dopamine receptor; on Melanocortin receptor 3; in assay [4]; on Adenosine receptor A2a; in [5]) was over 30 µM each time.
